Reference: patent publication US9782522B2, “Compositions and methods for treating and preventing neointimal stenosis” (Yale University, priority 2011, dated 2017)

Key:
[1] = system: TGF-β types I and II receptors; conditions: cited from earlier work
[2] = system: let-7 family miRNAs; assay: qRT-PCR let-7 miRNA expression in endothelial cells; format: cell-based, human; conditions: normal EC (HUAEC); U0126 at 10 μM
Experimental: Quantitative PCR analysis of 88 miRNA was performed using Human Cell Differentiation & Development RT^2 Profiler™ PCR Arrays (MAH-103A, QIAGEN) following the manufacturer's protocol. Validation of microRNA array data was performed with the RT^2 miRNA qPCR Assays and RT-PCR Primer Sets according to the manufacturer's instructions (QIAGEN). Primers for human mature let-7a (MPH00001A), let-7b (MPH00002A), let-7c (MPH00003A), let-7d (MPH00004A), let-7e (MPH00005A), let-7f (MPH00006A), let-7g (MPH00007A), mir-98 (MPH00480A), SNORD47 (MPH01660A) were from QIAGEN. Primers for mouse mature let-7a (MPM00483A), let-7b (MPM00484A), let-7c (MPM485A), let-7d (MPM00486A), let-7e (MPM00487A), let-7f (MPM00488A), let-7g (MPM00489A), let-7i (MPM00490A), mir-98 (MPM00875A) were from QIAGEN. Individual miRNA expression was normalized in relation to expression or small nuclear U6B RNA, a commonly used internal control for miRNA quantification assay. PCR amplification consisted of 10 min of an initial denaturation step at 95° C., followed by 45 cycles of PCR at 95° C. for 30 s, 60° C. for 30 s.
Recombinant human FGF2 (R&D) and TGFβ1 (Peprotech) were reconstituted in 0.1% BSA/PBS. U0126 (Sigma), a MEK inhibitor, was reconstituted in DMSO and used at a final concentration of 10 μM. […]

[3] = doses of 40 mg and 80 mg; cited from earlier work
[4] = system: TGF-β1-induced smad2/3 nuclear localization; conditions: cited from earlier work
[5] = system: mammary epithelial cells; conditions: cited from earlier work
[6] = system: Smad2/3 phosphorylation; conditions: cited from earlier work
[7] = system: HUAEC; assay: qRT-PCR mRNA expression of TGFβ signaling and Endo-MT markers in endothelial cells; format: cell-based, human; conditions: primary EC in vitro following FRS2 knockdown; lentiviral let-7 expression
Description: Human 293T T17 cells (ATCC CRL-11268) were maintained in Dulbecco's modified Eagle's medium (Gibco) with 10% fetal bovine serum (Invitrogen) and penicillinstreptomycin (Gibco). Primary human mammary epithelial cells (HuMEC, Invitrogen), were maintained in HuMEC basal serum free medium with HuMEC supplement (Invitrogen 12754-016) and bovine pituitary extract (Invitrogen 13028-014). Human foreskin cells (ATCC CRL-1079Sk) were maintained in Minimum Essential Medium (ATCC) with 10% fetal bovine serum (Hyclone), β-mercaptoethanol (Sigma), and penicillin-streptomycin (Gibco). Primary human atrial cells (passage 3-5; gift from Y. Qyang, Yale University School of Medicine) were maintained in Dulbecco's modified Eagle's medium (Gibco) with 10% fetal bovine serum (Invitrogen), L-glutamine (Gibco), Sodium pyruvate (Gibco), Non-essential amino acid (Gibco), and penicillin-streptomycin (Gibco). HUAEC (human umbilical artery endothelial cells, passage 5-10, Lonza) were cultured in EBM-2 supplemented with EGM-2-MV bullet kit (Lonza). HUVEC (human umbilical vein endothelial cells, passage 3-7, Yale Vascular Biology and Therapeutics) were cultured in M199 with ECGS, supplemented with 20% FBS (Sigma), L-glutamine (Gibco), and penicillin-streptomycin (Gibco). Culture vessels were coated with 0.1% gelatin (Sigma) for 30 min at 37° C. immediately prior to cell seeding. Primary mouse endothelial cells were isolated from the heart using rat anti-mouse CD31 antibody and Dynabeads (Invitrogen) as previously described (Partovian C, et al. Mol Cell. 32(1):140 (2008)).
RNA was isolated using RNeasy® plus Mini Kit (Qiagen) and converted to cDNA using iScript™ cDNA synthesis kit (Bio-Rad). Quantitative real-time PCR (qRT-PCR) was performed using Bio-Rad […] (Bio-Rad) by mixing equal amount of eDNAs, iQ™ SYBR® Green Supermix (Bio-Rad) and gene specific primers. All reactions were done in a 25 μl reaction volume in duplicate. Data were normalized to endogenous β-actin. Values are expressed as fold change in comparison to control. Mouse TGFβ gene expression was quantified via qRT-PCR with TaqMan® Gene Expression Assays (Mm00441726_m1; Applied Biosystems) and HPRT (Mm00441258_1; Applied Biosystems) as endogenous control followed the manufacturer's recommendation. Quantitative PCR analysis of 84 TGFβ and epithelial to mesenchymal transition (EMT) related genes were performed using Human TGFβ BMP signaling pathway (PAHS-035D, QIAGEN) and Human Epithelial to Mesenchymal Transition (PAHS-090D, QIAGEN) RT^2 Profiler™ PCR Arrays following the manufacturer's protocol. RT^2 Profiler™ PCR arrays were run on a Bio-Rad CFX96 machine (Bio-Rad). Duplicate arrays were run per condition for control and FRS2 knockdown human umbilical arterial endothelial cells (HUAEC). Data analysis was performed using the manufacturer's integrated web-based software package for the PCR Array System using cycle threshold (Ct)-based fold-change calculations.
Recombinant human FGF2 (R&D) and TGFβ1 (Peprotech) were reconstituted in 0.1% BSA/PBS. U0126 (Sigma), a MEK inhibitor, was reconstituted in DMSO and used at a final concentration of 10 μM. SB431542 (Sigma), a TGFBR1 kinase inhibitor, was reconstituted in DMSO and used at a final concentration of 10 μM in cell culture. Actinomycin D (Sigma), a DNA transcription suppressor, was reconstituted in acetone and used at a final concentration of 10 μg/ml in cell culture. […]

## CCCCc1nc(Cl)c(CO)n1Cc1ccc(-c2ccccc2-c2nnn[nH]2)cc1 [Losartan, (2-butyl-4-chloro-1-{[2′-(1H-tetrazol-5-yl)biphenyl-4-yl]methyl}-1H-imidazol-5-yl)methanol]
[1]
  Expression of TGF-β types I and II receptors: downregulate

## FGF2: Recombinant human FGF2 (R&D)
[2]
  Expression of let-7 family miRNAs: time dependent increase

## Cc1cccc(-c2nn3c(c2-c2ccnc4ccc(C(N)=O)cc24)CCC3)n1 [LY2157299, 4-(2-(6-methylpyridin-2-yl)-5,6-dihydro-4H-pyrrolo[1,2-b]pyrazol-3-yl)quinoline-6-carboxamide]
[3]
  Tolerability: well tolerated

## Cc1cccc(-c2[nH]c(C(C)(C)C)nc2-c2ccc3nccnc3c2)n1 [SB525334, 6-[2-(1,1-Dimethylethyl)-5-(6-methyl-2-pyridinyl)-1H-imidazol-4-yl]quinoxaline]
[4]
  TGF-β1-induced mRNA expression: inhibits
  TGF-β1-induced smad2/3 nuclear localization: inhibits

## Cc1cccc(-c2nc(NCc3cccc(C#N)c3)sc2-c2ccc3ncnn3c2)n1 [EW-7203, 3((5-([1,2,4]triazolo[1,5-a]pyridin-6-yl)-4-(6-methylpyridin-2-yl)thiazol-2-ylamino)methyl)benzonitrile]
[5]
  Endo-MT: inhibits
  TGF-β1-induced Smad signaling: inhibits

## Cc1cccc(-c2nc(C34CCC(C(N)=O)(CC3)CC4)[nH]c2-c2ccc3c(c2)OCO3)n1 [SM16, 4-(5-(benzo[d][1,3]dioxol-5-yl)-4-(6-methylpyridin-2-yl)-1H-imidazol-2-yl)bicyclo[2.2.2]octane-1-carboxamide]
[6]
  TGF-β and activin-induced Smad2/3 phosphorylation: blocks

## N#CC(=C(/N)Sc1ccccc1N)/C(C#N)=C(\N)Sc1ccccc1N [U0126]
[2]
  Expression of let-7 family miRNAs: decrease

B1: Let-7b/c: let-7b and let-7c miRNAs expressed from lentivirus vector (pre-let-7b, pre-let-7c) (nucleic acid, listed as Homo sapiens)
chain: GCAUCCGGGUUGAGGUAGUAGGUUGUAUGGUUUAGAGUUACACCCUGGGAGUUAACUGUACAACCUUCUAGCUUUCCUUGGAGC
[7]
  Expression of all SMC and mesenchymal markers: declined to pre-FRS2 knockdown levels
  TGFβR1 and SMAD2 expression: fully inhibited
